Measurements taken from ChEMBL document CHEMBL1144814, “5-Sulfonyl-benzimidazoles as selective CB2 agonists” (Bioorg Med Chem Lett, 2008).

What was measured:
[1] = Ratio of EC50 for CB2 receptor to EC50 for CB1 receptor (unknow origin)
Cannabinoid receptor 2 = Cannabinoid receptor 2 (Homo sapiens, UniProt P34972); experiment: Agonist activity at human CB2 receptor; assay type: functional
[2] = Metabolism in human liver microsomes after 15 mins
[3] = target: T1, Cannabinoid receptor 2 (Rattus norvegicus) (UniProt Q9QZN9); experiment: Agonist activity at rat CB2 receptor; assay type: functional
T1 sequence (whole entry): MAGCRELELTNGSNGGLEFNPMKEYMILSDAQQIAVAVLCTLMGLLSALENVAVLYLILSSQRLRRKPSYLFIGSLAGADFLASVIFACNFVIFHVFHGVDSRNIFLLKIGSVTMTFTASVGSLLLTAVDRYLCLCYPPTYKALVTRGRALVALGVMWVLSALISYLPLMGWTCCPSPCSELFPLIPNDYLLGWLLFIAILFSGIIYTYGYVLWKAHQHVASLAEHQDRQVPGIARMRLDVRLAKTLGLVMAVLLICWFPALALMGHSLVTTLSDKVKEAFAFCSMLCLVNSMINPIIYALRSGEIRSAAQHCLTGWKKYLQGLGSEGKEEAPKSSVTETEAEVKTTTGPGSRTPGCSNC

[4] = AUC (0 to infinity) in Sprague-Dawley rat at 10 mg/kg, po; assay type: ADME, organism-based; parameters: time infinity, dose 10 mg/kg, route oral; conditions: plasma
CYP2C9 = CYP2C9 (Homo sapiens, UniProt P11712); experiment: Inhibition of CYP2C9 at 10 uM; assay type: ADME
[5] = Tmax in Sprague-Dawley rat at 10 mg/kg, po; assay type: ADME, organism-based; parameters: dose 10 mg/kg, route oral; conditions: in vivo
[6] = Ratio of drug level in brain to plasma in Sprague-Dawley rat at 10 mg/kg, po; assay type: ADME, organism-based; parameters: dose 10 mg/kg, route oral; conditions: read-out: BPR
[7] = Cmax in Sprague-Dawley rat at 10 mg/kg, po; assay type: ADME, organism-based; parameters: dose 10 mg/kg, route oral; conditions: in vivo
[8] = Half life in Sprague-Dawley rat at 10 mg/kg, po; assay type: ADME, organism-based; parameters: dose 10 mg/kg, route oral; conditions: in vivo
CYP2C19 = CYP2C19 (Homo sapiens, UniProt P33261); experiment: Inhibition of CYP2C19 at 10 uM; assay type: ADME
[9] = Oral bioavailability in Sprague-Dawley rat at 10 mg/kg; assay type: ADME, organism-based; conditions: in vivo
Rattus norvegicus = experiment: Induction of CB1-mediated side effects in Sprague-Dawley rat at 40 mg/kg, po by tetrad test; assay type: organism-based; parameters: dose 40 mg/kg, route oral; conditions: in vivo
[10] = Fraction of dose absorbed in Sprague-Dawley rat at 10 mg/kg, po; assay type: ADME, organism-based; parameters: dose 10 mg/kg, route oral; conditions: in vivo, read-out: Fabs
[11] = Solubility at pH 4; assay type: physicochemical; conditions: buffer
Cytochrome P450 2C9 = Cytochrome P450 2C9 (Homo sapiens, UniProt P11712); experiment: Inhibition of CYP2C9; assay type: ADME
Cytochrome P450 3A4 = Cytochrome P450 3A4 (Homo sapiens, UniProt P08684); experiment: Inhibition of CYP3A4; assay type: ADME
Cytochrome P450 1A2 = target: T2, Cytochrome P450 1A2 (Homo sapiens, UniProt P05177); experiment: Inhibition of CYP1A2; assay type: ADME
T2 sequence (P05177 whole entry): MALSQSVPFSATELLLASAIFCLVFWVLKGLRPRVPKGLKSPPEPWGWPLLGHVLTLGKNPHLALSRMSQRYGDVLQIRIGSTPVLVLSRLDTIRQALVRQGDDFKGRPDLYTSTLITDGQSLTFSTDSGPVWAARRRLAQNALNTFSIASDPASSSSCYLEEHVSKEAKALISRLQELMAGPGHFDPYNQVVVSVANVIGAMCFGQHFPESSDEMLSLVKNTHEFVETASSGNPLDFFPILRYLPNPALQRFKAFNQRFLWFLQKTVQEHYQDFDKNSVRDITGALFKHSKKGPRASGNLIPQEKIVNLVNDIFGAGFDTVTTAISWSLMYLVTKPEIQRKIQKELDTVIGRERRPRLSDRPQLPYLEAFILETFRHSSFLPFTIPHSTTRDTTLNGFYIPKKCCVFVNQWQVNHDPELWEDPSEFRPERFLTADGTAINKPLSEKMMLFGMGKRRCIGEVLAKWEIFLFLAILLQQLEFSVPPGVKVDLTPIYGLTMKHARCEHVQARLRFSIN

Cytochrome P450 2D6 = Cytochrome P450 2D6 (Homo sapiens, UniProt P10635); experiment: Inhibition of CYP2D6; assay type: ADME
Cytochrome P450 2C19 = Cytochrome P450 2C19 (Homo sapiens, UniProt P33261); experiment: Inhibition of CYP2C19; assay type: ADME
[12] = Solubility at pH 7.4; assay type: physicochemical; conditions: buffer

Chain of Cannabinoid receptor 2 (P34972 whole entry): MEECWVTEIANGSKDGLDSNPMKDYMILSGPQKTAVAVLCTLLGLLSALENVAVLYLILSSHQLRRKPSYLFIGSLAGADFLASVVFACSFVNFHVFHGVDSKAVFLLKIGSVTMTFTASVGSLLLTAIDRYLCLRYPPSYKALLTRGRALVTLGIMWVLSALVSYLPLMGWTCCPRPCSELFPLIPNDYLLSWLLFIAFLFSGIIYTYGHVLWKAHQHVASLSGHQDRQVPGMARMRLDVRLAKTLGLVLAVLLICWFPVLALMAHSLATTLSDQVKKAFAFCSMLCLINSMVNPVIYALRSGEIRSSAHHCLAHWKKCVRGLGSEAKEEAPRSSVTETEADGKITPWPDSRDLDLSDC
Chain of Cytochrome P450 3A4 (P08684 whole entry): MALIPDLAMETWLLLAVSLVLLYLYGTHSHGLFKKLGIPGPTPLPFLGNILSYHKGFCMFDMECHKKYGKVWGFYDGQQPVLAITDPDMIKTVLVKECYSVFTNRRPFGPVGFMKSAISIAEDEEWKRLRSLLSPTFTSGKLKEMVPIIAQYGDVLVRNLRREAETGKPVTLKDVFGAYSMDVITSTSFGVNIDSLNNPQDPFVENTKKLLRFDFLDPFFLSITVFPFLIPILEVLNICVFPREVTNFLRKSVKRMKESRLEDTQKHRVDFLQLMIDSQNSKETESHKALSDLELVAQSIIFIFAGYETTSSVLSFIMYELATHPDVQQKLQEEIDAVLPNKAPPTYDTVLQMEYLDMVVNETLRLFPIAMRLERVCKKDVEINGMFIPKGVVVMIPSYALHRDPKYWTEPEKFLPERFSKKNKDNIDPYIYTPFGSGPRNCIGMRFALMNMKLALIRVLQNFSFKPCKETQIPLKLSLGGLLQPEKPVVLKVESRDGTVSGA
Chain of CYP2C9 (P11712 whole entry): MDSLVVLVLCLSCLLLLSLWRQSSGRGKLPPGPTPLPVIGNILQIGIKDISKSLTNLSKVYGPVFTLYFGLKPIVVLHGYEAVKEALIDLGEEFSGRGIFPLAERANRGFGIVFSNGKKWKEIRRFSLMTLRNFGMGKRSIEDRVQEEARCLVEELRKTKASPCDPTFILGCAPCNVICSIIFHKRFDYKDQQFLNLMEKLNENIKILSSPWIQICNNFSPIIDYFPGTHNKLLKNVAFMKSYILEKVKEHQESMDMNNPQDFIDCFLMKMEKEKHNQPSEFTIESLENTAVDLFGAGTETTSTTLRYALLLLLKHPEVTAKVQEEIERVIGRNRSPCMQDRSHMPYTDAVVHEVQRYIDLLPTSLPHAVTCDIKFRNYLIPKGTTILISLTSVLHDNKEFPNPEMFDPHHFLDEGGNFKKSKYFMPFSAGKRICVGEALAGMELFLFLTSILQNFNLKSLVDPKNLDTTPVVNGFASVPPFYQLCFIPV
Chain of Cytochrome P450 2C9 (P11712 whole entry): as above
Chain of Cytochrome P450 2C19 (P33261 whole entry): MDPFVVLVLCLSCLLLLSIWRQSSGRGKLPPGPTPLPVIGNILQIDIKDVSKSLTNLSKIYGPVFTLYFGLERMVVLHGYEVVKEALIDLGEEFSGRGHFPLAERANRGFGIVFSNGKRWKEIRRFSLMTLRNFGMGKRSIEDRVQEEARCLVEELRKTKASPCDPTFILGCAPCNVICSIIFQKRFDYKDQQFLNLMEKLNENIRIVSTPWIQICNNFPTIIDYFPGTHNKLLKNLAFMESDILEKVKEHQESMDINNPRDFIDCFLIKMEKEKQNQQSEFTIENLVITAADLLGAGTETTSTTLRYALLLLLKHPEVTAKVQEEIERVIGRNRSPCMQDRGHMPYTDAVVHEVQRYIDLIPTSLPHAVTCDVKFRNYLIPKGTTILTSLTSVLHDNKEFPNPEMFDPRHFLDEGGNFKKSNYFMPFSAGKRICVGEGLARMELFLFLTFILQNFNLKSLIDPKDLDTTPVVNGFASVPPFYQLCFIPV
Chain of CYP2C19 (P33261 whole entry): as above
Chain of Cytochrome P450 2D6 (P10635 whole entry): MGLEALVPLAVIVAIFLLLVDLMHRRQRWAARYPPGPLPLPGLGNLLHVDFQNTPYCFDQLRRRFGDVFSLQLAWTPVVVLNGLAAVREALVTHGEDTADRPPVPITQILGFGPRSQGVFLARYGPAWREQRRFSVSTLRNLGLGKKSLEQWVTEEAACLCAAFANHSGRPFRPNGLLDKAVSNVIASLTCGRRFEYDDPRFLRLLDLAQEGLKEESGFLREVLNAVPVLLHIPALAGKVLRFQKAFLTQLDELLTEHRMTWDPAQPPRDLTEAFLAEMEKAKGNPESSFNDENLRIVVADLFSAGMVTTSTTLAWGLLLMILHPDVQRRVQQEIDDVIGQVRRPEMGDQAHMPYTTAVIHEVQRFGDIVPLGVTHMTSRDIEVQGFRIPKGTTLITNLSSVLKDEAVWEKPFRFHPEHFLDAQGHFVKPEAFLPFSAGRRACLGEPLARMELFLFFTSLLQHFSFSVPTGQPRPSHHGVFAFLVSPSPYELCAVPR

Compound	Ratio EC50 [1]	EC50 (Cannabinoid receptor 2)	metabolized at 0.25 h [2]	further results
CC(=O)NCCCS(=O)(=O)c1ccc2c(c1)nc(C(C)(C)C)n2CC1CCOCC1	109	100 nM	–	–
CC(C)(C)c1nc2cc(S(=O)(=O)CC3CC3)ccc2n1CC1CCOCC1	121	1.3 nM	14%	–
CCS(=O)(=O)c1ccc2c(c1)nc(C(C)C)n2CC1CCCCC1	–	1.6 nM	–	Efficacy [3]: 99%; Efficacy (Cannabinoid receptor 2): 101%
CC(C)(C)c1nc2cc(S(=O)(=O)c3ccco3)ccc2n1CC1CCOCC1	40	0.4 nM	–	–
CC(C)(C)c1nc2cc(S(=O)(=O)c3ccc(C#N)cc3)ccc2n1CC1CCOCC1	191	0.6 nM	42%	–
CC(C)(C)c1nc2cc(S(=O)(=O)CCCC(F)(F)F)ccc2n1CC1CCOCC1	285	1 nM	36%	–
CCNCCCS(=O)(=O)c1ccc2c(c1)nc(C(C)(C)C)n2CC1CCOCC1	4.3	158 nM	–	–
CCOc1ccc(Cc2nc3cc(SCC)c(Cl)cc3[nH]2)cc1	–	2000 nM	–	–
CC(C)(C)c1nc2cc(S(=O)(=O)c3ccnc(F)c3)ccc2n1CC1CCOCC1	495	0.8 nM	40%	–
CC(C)(C)c1nc2cc(S(=O)(=O)c3c(Cl)cccc3Cl)ccc2n1CC1CCOCC1	292	0.4 nM	96%	–
CCS(=O)(=O)c1ccc2c(c1)nc(CC(C)C)n2CC1CCOCC1	–	4 nM	–	Efficacy [3]: 43%; Efficacy (Cannabinoid receptor 2): 101%
Cc1cc(S(=O)(=O)c2ccc3c(c2)nc(C(C)(C)C)n3CC2CCOCC2)ccn1	1620	1.3 nM	40%	–
CC(C)(C)c1nc2cc(S(=O)(=O)c3ccccc3)ccc2n1CC1CCCCC1	14	1.2 nM	23%	–
CCOc1ccc(Cc2nc3cc(S(=O)(=O)CC)ccc3n2CC2CCOCC2)cc1	1600	4 nM	34%	Efficacy (Cannabinoid receptor 2): 44%
CCS(=O)(=O)c1ccc2c(c1)nc(C(C)(C)C)n2CC1CCCCC1	–	0.8 nM	–	Efficacy (Cannabinoid receptor 2): 104%
CCOc1ccc(Cc2nc3cc(S(=O)(=O)CC)c(Cl)cc3n2CC2CCOCC2)cc1	537	20 nM	66%	–
CC(C)(C)c1nc2cc(S(=O)(=O)CCC(F)(F)F)ccc2n1CC1CCOCC1	394	1.3 nM	13%	–
CCOc1ccc(Cc2nc3cc(S(=O)(=O)CC)c(Cl)cc3n2CC2CCCCC2)cc1	50	5 nM	74%	–
CC(C)(C)c1nc2cc(S(=O)(=O)CCC#N)ccc2n1CC1CCOCC1	2110	4 nM	24%	–

Compound	Ratio EC50 [1]	EC50 (Cannabinoid receptor 2)	metabolized at 0.25 h [2]	further results
CC(C)(C)c1nc2cc(S(=O)(=O)c3ccc(CN)cc3)ccc2n1CC1CCOCC1	363	5 nM	–	–
CC(=O)N(C)Cc1ccc(S(=O)(=O)c2ccc3c(c2)nc(C(C)(C)C)n3CC2CCOCC2)cc1	550	1.6 nM	50%	–
CCOc1cc(S(=O)(=O)c2ccc3c(c2)nc(C(C)(C)C)n3CC2CCOCC2)ccn1	4270	0.3 nM	48%	AUC(0-inf) [4]: 2500 ng·h/mL; inhibition at 10 µM (CYP2C9): 94%; Tmax [5]: 0.5 h; Kp [6]: 0.1; Cmax [7]: 731 ng/mL; half-life [8]: 3.4 h; inhibition at 10 µM (CYP2C19): 76%; bioavailability [9]: 43%; Activity (Rattus norvegicus): Non-toxic; Fa [10]: ≤ 1%
CCOc1ccc(Cc2nc3cc(Cl)c([S+]([O-])CC)cc3[nH]2)cc1 (configuration not stated)	–	> 10000 nM	–	–
CCOc1ccc(Cc2nc3cc([S+]([O-])CC)c(Cl)cc3n2CC2CCOCC2)cc1 (configuration not stated)	484	20 nM	95%	–
CCOc1ccc(Cc2nc3cc([S+]([O-])CC)c(Cl)cc3n2CC2CCCCC2)cc1 (configuration not stated)	8.2	6.3 nM	–	–
CC(C)(C)c1nc2cc(S(=O)(=O)CCN)ccc2n1CC1CCOCC1	912	10 nM	–	–
CCS(=O)(=O)c1ccc2c(c1)nc(C1CC1)n2CC1CCOCC1	–	4 nM	–	Efficacy [3]: 0%; Efficacy (Cannabinoid receptor 2): 109%
CC(C)(C)c1nc2cc(S(=O)(=O)c3cccc(C#N)c3)ccc2n1CC1CCOCC1	1460	0.5 nM	61%	–
CCOc1ccc(Cc2nc3cc(SCC)c(Cl)cc3n2CC2CCOCC2)cc1	75	4 nM	98%	–
[O-][S+](Cc1ccc(Cl)cc1)c1cc2nc(C3CCCCC3)[nH]c2cc1Cl (configuration not stated)	> 1000	< 1 nM	< 50%	solubility [11]: > 20 µM; Inhibition (Cytochrome P450 2C9): < 50%; Inhibition (Cytochrome P450 3A4): < 50%; Efficacy (Cannabinoid receptor 2): > 100%; Inhibition (Cytochrome P450 1A2): < 50%; Inhibition (Cytochrome P450 2D6): < 50%; Inhibition (Cytochrome P450 2C19): < 50%; solubility [12]: > 20 µM
CC(C)(C)c1nc2cc(S(=O)(=O)c3nccs3)ccc2n1CC1CCOCC1	4	0.8 nM	25%	–
CCS(=O)(=O)c1ccc2c(c1)nc(C(C)(C)C)n2CC1CCOCC1	551	1.2 nM	0%	Efficacy [3]: 102%; Efficacy (Cannabinoid receptor 2): 120%
CC(C)(C)c1nc2cc(S(=O)(=O)Cc3ccc(C#N)cc3)ccc2n1CC1CCCCC1	436	0.5 nM	73%	–
CC(C)(C)c1nc2cc(S(=O)(=O)CCO)ccc2n1CC1CCOCC1	3850	2.5 nM	6%	–
CC(C)(C)c1nc2cc(S(=O)(=O)C(F)(F)c3ccc(C#N)cc3)ccc2n1CC1CCCCC1	62	1.6 nM	28%	–
CC(C)(C)c1nc2cc(S(=O)(=O)c3ccncc3)ccc2n1CC1CCOCC1	215	1.2 nM	28%	–
CCOc1ccc(Cc2nc3cc(SCC)c(Cl)cc3n2CC2CCCCC2)cc1	1.2	125 nM	85%	–
CCS(=O)(=O)c1ccc2c(c1)nc(C)n2CC1CCCCC1	–	31 nM	–	–
